Where “and” joins values, the source holds several entries; their conditions need not be identical. Equal entries are not always repeated. Where two headings read alike, the source gives them in different places.
Experiments:
[1] = Singlet oxygen quantum yield and lifetime (1270 nm phosphorescence in D2O) under magnetic field; assay type: physicochemical; details: for τΔ (lifetime of singlet oxygen): RB 10 μmol/L in D2O
Method: (4) Singlet oxygen (^1O2), quantum yield (ΦΔ) and lifetime (τΔ) are measured by the following experiment. The phosphorescence of singlet oxygen (^1O2) generated at 1270 nm is determined in air saturated D2O solution of RB (10 μmol/L). The solution is excited at 561 nm.
The magnetic field effect MFs (ΦΔ,B) is calculated by the following formula: ΦΔ,B=ΦΔ,0×(IB/I0), where IB and I0 are peak areas of emission peaks at a magnetic field strength of B and without magnetic field strength, respectively.
The change rate of the magnetic field effect is:
The lifetime (τΔ) of singlet oxygen (^1O2) is affected by the magnetic field effect is as follows: […]

HeLa cells [2] = test: CCK-8 cell viability of HeLa cells under light and magnetic field; assay type: cell-based; details: for CV(%) (cell viability): final concentration of photosensitizer 30 mol/L (so in the source), light 10 min; for mfe(CV)(%) =(CV0−CVB)/CV0×100%: photosensitizer 30 mol/L (so in the source); for IC50: white light 400-700 nm 5 mW·cm−2, 10 min, read-out: RB Half inhibitory concentration
Method: (1) Appropriate amounts of HeLa cells are added to DMEM medium (Corning, USA, high glycoform, with glucose concentration […] 4.5 g/L), and then appropriate amounts of 10 wt % fetal bovine serum (FBS), 1 wt % penicillin and streptomycin are added. Cells are cultured at 37° C. in humidified air with 5% (volume fraction) CO2 for 2 days.
The above Hela cells (2×10^3/well) are seeded in 96-well plates for 24 h without light. 100 μL medium and 100 μL aqueous solution of RB with concentrations of 80, 40, 20, 10, 5 μmol/L or 100 μL 0.01 mol/L PBS buffer (phosphate buffered saline) are added respectively, and treated for 24 h, thereafter the cells are washed 3 times with PBS buffer.
DMEM (comprising FBS) medium is added to the 96-well plates for 24 hours in the absence of light. An additional 10 μL of Cell Counting Kit-8 (CCK-8 kit) (Beyotime Biotechnology Co. Ltd.) and 90 μL of DMEM are added to each well, and the light and magnetic field strength are controlled for a subsequent incubation of 30 minutes. The absorbance at 450 nm is read using a microplate reader. Cell Viability (CV) of Hela cells is calculated using the following equation: […]
Where As is the absorbance of HeLa cells comprising photosensitizer (PS), Ac is the absorbance of Hela cells without PS and Ab is the absorbance of those without PS and HeLa cells.
The change rate of half inhibitory concentration, mfeP (Cell Viability (%)) is obtained as follows: mfeP=(IC50,0−IC50,B)/IC50,B×100%, where IC50,0 is half inhibitory concentration at magnetic field strength of 0 mT and IC50,B is half inhibitory concentration at magnetic field strength of B.
Under white light with lighting conditions of 400-700 nm, the power of 5 mW·cm^−2, test is carried out in a magnetic field with strengths of 0-800 mT, and the irradiation and the magnetic field perform for 10 min. The results of the test calculations for mfeP (Cell Viability (%)) at different concentrations of RB and each magnetic field strength are shown in FIG. 8. The RB half inhibitory concentration μmol/L at magnetic field strength of B calculated by logistic regression model fitting according to FIG. 8 are shown in Table 2 below.
In above experiment, with final concentration of photosensitizer of 30 mol/L, CV (%) and mfe (CV) (%) measured and calculated at each magnetic field strength are specifically shown in Table 3, where mfe(CV)=(CV0−CVB)/CV0×100%.

HeLa cells [3] = test: Annexin V-FITC/PI apoptosis flow cytometry of HeLa cells; assay type: cell-based; details: RB 30 μmol/L; for percentage of apoptotic cells: light 561 nm 5 mW·cm−2 10 min
Method: (2) HeLa cells (2×10^4/well) are seeded in 6-well plates and cultured for 24 hours, added with RB solution (final concentration 30 μmol/L) or PBS buffer (final concentration 0.01 mol/L), and after treating 24 hours, cells are washed 3 times with PBS buffer.
The cells are placed under a magnetic field at 0, 250 or 800 mT, simultaneously with light (561 nm, 5 mW·cm^−2) or in the dark, and treated 10 minutes. After 24 hours incubation in the dark, cells are stained with Annexin V-FITC/PI Apoptosis Kit (available from Biyotime Biotechnology Co. Ltd), are detected by flow cytometry (BD FACSVerse, Becton Dickinson) and are statistically analysized three times every group, and results are shown in FIG. 13, in which Quadrant Q4 is for the number of healthy cells, Q1 is for the number of early apoptotic cells, Q2 is for the number of late apoptotic cells and Q3 is for the number of necrotic cells.

[4] = tested on: HeLa xenograft tumor tissue; test: IHC staining (Bax, Bcl-2, cleaved Caspase-3) of xenograft tumor tissue sections for apoptosis; assay type: in vivo, BALB/c nude mice; details: RB added, day 14, FIG. 19
Source text: Test (two): After sacrificing the mice on day 14, tumor tissue and major organs (heart, liver, spleen, lungs and kidney) are collected and detected histologically. Tumor tissue and major organs are fixed by 10% neutral formalin solution. Hematoxylin-Eosin (H&E) staining is used to analyze toxicity of light and magnetic field effects on tumor and normal organs. Terminal deoxynucleotidyl transferase-mediated dUTP nick end labeling (TUNEL) staining is used to detect apoptosis in tumor tissue, and expression of cleaved Caspase-3, Bax and Bcl-2 in tumor tissue is simultaneously detected.

SMILES: O=C1OC2(c3cc(I)c(O)c(I)c3Oc3c2cc(I)c(O)c3I)c2c(Cl)c(Cl)c(Cl)c(Cl)c21 [RB, Rose Bengal]
- τΔ (lifetime of singlet oxygen) ([1]; MF 0 mT): 66.7 ± 2.8 μs
- τΔ (lifetime of singlet oxygen) ([1]; MF 30 mT): 65.8 ± 7.1 μs
- τΔ (lifetime of singlet oxygen) ([1]; MF 50 mT): 60.7 ± 2.0 μs
- τΔ (lifetime of singlet oxygen) ([1]; MF 90 mT): 62.6 ± 3.2 μs
- τΔ (lifetime of singlet oxygen) ([1]; MF 120 mT): 69.5 ± 4.7 μs
- τΔ (lifetime of singlet oxygen) ([1]; MF 150 mT): 62.8 ± 0.8 μs
- τΔ (lifetime of singlet oxygen) ([1]; MF 200 mT): 65.4 ± 4.5 μs
- rate of change of luminescence quantum yield of 1O2 ([1]; RB 10 μmol/L in air saturated D2O, excited at 561 nm, with increasing magnetic field, FIG. 21): −5% to +10%
- mfeP (Cell Viability(%), change rate of half inhibitory concentration) (HeLa cells [2]; MF 14 mT vs 0 mT): −21% and −21.5%
- mfeP (Cell Viability(%), change rate of half inhibitory concentration) (HeLa cells [2]; MF 40 mT vs 0 mT): 8.1%
- mfeP (Cell Viability(%), change rate of half inhibitory concentration) (HeLa cells [2]; MF 90 mT vs 0 mT): 13.3%
- mfeP (Cell Viability(%), change rate of half inhibitory concentration) (HeLa cells [2]; MF 150 mT vs 0 mT): 14.8%
- mfeP (Cell Viability(%), change rate of half inhibitory concentration) (HeLa cells [2]; MF 250 mT vs 0 mT): 22.4%
- mfeP (Cell Viability(%), change rate of half inhibitory concentration) (HeLa cells [2]; MF 575 mT vs 0 mT): 22.1%
- mfeP (Cell Viability(%), change rate of half inhibitory concentration) (HeLa cells [2]; MF 700 mT vs 0 mT): −11.1%
- mfeP (Cell Viability(%), change rate of half inhibitory concentration) (HeLa cells [2]; MF 800 mT vs 0 mT): −58%
- CV(%) (cell viability) (HeLa cells [2]; MF 0 mT): 71.1 ± 0.5%
- CV(%) (cell viability) (HeLa cells [2]; MF 14 mT): 89.8 ± 4.2%
- CV(%) (cell viability) (HeLa cells [2]; MF 150 mT): 72.5 ± 3.2%
- CV(%) (cell viability) (HeLa cells [2]; MF 250 mT): 59.9 ± 2.6%
- CV(%) (cell viability) (HeLa cells [2]; MF 400 mT): 42.3 ± 6.7%
- CV(%) (cell viability) (HeLa cells [2]; MF 575 mT): 74.1 ± 0.6%
- CV(%) (cell viability) (HeLa cells [2]; MF 700 mT): 78.3 ± 3.2%
- CV(%) (cell viability) (HeLa cells [2]; MF 800 mT): 83.0 ± 0.5%
- mfe(CV)(%) =(CV0−CVB)/CV0×100% (HeLa cells [2]; MF 0 mT): 0%
- mfe(CV)(%) =(CV0−CVB)/CV0×100% (HeLa cells [2]; MF 14 mT): −26.3%
- mfe(CV)(%) =(CV0−CVB)/CV0×100% (HeLa cells [2]; MF 150 mT): −1.97%
- mfe(CV)(%) =(CV0−CVB)/CV0×100% (HeLa cells [2]; MF 250 mT): 15.8%
- mfe(CV)(%) =(CV0−CVB)/CV0×100% (HeLa cells [2]; MF 400 mT): 40.5%
- mfe(CV)(%) =(CV0−CVB)/CV0×100% (HeLa cells [2]; MF 575 mT): −4.2%
- mfe(CV)(%) =(CV0−CVB)/CV0×100% (HeLa cells [2]; MF 700 mT): −10.13%
- mfe(CV)(%) =(CV0−CVB)/CV0×100% (HeLa cells [2]; MF 800 mT): −16.7%
- IC50 (HeLa cells [2]; MF 0 mT): 34.2 ± 1.7 µM
- IC50 (HeLa cells [2]; MF 14 mT): 41.6 ± 1.4 µM
- IC50 (HeLa cells [2]; MF 40 mT): 31.5 ± 1 µM
- IC50 (HeLa cells [2]; MF 90 mT): 29.7 ± 0.7 µM
- IC50 (HeLa cells [2]; MF 150 mT): 29.2 ± 0.6 µM
- IC50 (HeLa cells [2]; MF 250 mT): 26.6 ± 0.3 µM
- IC50 (HeLa cells [2]; MF 400 mT): 26.1 ± 0.8 µM
- IC50 (HeLa cells [2]; MF 575 mT): 26.7 ± 1.9 µM
- IC50 (HeLa cells [2]; MF 700 mT): 38 ± 1.1 µM
- IC50 (HeLa cells [2]; MF 800 mT): 54.1 ± 0.8 µM
- percentage of apoptotic cells (HeLa cells [3]; 250 mT): 75.9%
- percentage of apoptotic cells (HeLa cells [3]; 800 mT): 32.9%
- percentage of apoptotic cells (HeLa cells [3]; no magnetic field): 63.8%
- increase of percentage of apoptotic cells vs no magnetic field (HeLa cells [3]; light, 250 mT): 19%
- apoptosis in tumor sections (IHC) ([4]; magnetic field of 250 mT): apoptosis is more pronounced
- apoptosis in tumor sections (IHC) ([4]; magnetic field of 800 mT): apoptosis is not significant

Reference: patent publication US20250041624A1, “METHOD FOR ENHANCING ACTIVITY OF PHOTOSENSITIZER BY MAGNETIC FIELD” (PEKING UNIVERSITY, priority 2021, published 2025)
